Test results from patent US20240067632A1, “WEE1 Degrading Compounds and Uses Thereof” (Bristol-Myers Squibb Company, priority 2022, published 2024).

How the values were obtained:
[1] = biological target: T1, WEE1 (Homo sapiens, UniProt P30291+Q96SW2); assay: WEE1-ePL degradation assay (LentiX-WEE1-ePL-GSPT1-ND cells, InCELL Hunter luminescence, 4 h); format: cell-based; conditions: 293T-LentiX WEE1-ePL cells; for 293T-LentiX WEE1-ePL Degradation 4 hr (Ymin): lower limit of the fit (0 = luciferase inhibitor, Ymax = DMSO control); for DC50: read-out: 293T-LentiX WEE1-ePL Degradation 4 hr (EC50)
T1 construct: C-terminal ePL-tagged (DiscoverX, Fremont, CA) full-length WEE1 expression construct; expressed in transfected cells; host or cells: LentiX-HEK293T (Invitrogen), lentiviral transduction; co-expressing GSPT1-GN (G576N, lacking the first 158 amino acids)
How it was run: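 Degradation EC50 was fitted by a four-parameter logistic model, with the upper limit taken from DMSO wells. Luminescence was read with InCELL Hunter reagent after 30 min at room temperature, following a 4 h, 37° C exposure of 2500 cells/well. Cells were LentiX-HEK293T carrying ePL-tagged full-length WEE1, dosed in 10 points (3-fold) from 1 or 10 uM.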

[2] = test system: MKN45 cells; assay: MKN45 cell proliferation assay (Cell-Titer-Glo, 120 h); format: cell-based; conditions: for EC50: Homo sapiens, MKN-45, 120 h, Cell-Titer-Glo, growth inhibition, read-out: MKN45 Cell Prolif. 120 hr (EC50); for MKN45 Cell Prolif. 120 hr (Ymin-Obs): minimal percent of DMSO control observed in the concentrations tested
How it was run: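 Cells seeded at 400/well onto pre-printed 10-point half-log dilutions (top 1 or 10 uM, 0.1% DMSO final), in triplicate, and grown 120 h at 37 C. Viability by Cell-Titer-Glo luminescence, blank-subtracted and normalised to DMSO; EC50 from four-parameter logistic fit, with observed minimal % of control recorded as Ymin-obs.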

CO[C@H]1CC[C@@H](Nc2ccc3cc(CN4CC[C@H](Oc5ccc6c(c5)CN(C5CCC(=O)NC5=O)C6=O)C4)ccc3n2)CC1 (stereo partly drawn) [3-(1-oxo-5-{[(3S)-1-[(2-{[(1s,4s)-4-methoxycyclohexyl]amino}quinolin-6-yl)methyl]pyrrolidin-3-yl]oxy}-2,3-dihydro-1H-isoindol-2-yl)piperidine-2,6-dione]
293T-LentiX WEE1-ePL Degradation 4 hr (Ymin) [1]: 29.5
DC50 [1]: 0.00638 µM
EC50 [2]: 0.00104 µM
MKN45 Cell Prolif. 120 hr (Ymin-Obs) [2]: 6.285

CO[C@H]1CC[C@@H](Oc2ccc3cc(CN4CC[C@H](Oc5ccc6c(c5)CN(C5CCC(=O)NC5=O)C6=O)C4)ccc3n2)CC1 (stereo partly drawn) [3-(1-oxo-5-{[(3S)-1-[(2-{[(1s,4s)-4-methoxycyclohexyl]oxy}quinolin-6-yl)methyl]pyrrolidin-3-yl]oxy}-2,3-dihydro-1H-isoindol-2-yl)piperidine-2,6-dione]
293T-LentiX WEE1-ePL Degradation 4 hr (Ymin) [1]: 31.33
DC50 [1]: 0.00462 µM
EC50 [2]: 0.00535 µM
MKN45 Cell Prolif. 120 hr (Ymin-Obs) [2]: 8.79

O=C1CCC(N2Cc3cc(O[C@H]4CCN(Cc5ccc6nc(CO[C@@H]7CCOC7)ccc6c5)C4)ccc3C2=O)C(=O)N1 (stereo partly drawn) [3-(1-oxo-5-{[(3S)-1-[(2-{[(3R)-oxolan-3-yloxy]methyl}quinolin-6-yl)methyl]pyrrolidin-3-yl]oxy}-2,3-dihydro-1H-isoindol-2-yl)piperidine-2,6-dione]
293T-LentiX WEE1-ePL Degradation 4 hr (Ymin) [1]: 30
DC50 [1]: 0.00451 µM
EC50 [2]: 0.00263 µM
MKN45 Cell Prolif. 120 hr (Ymin-Obs) [2]: 6.56

O=C1CCC(N2Cc3cc(O[C@H]4CCN(Cc5ccc6nc(CO[C@H]7CCOC7)ccc6c5)C4)ccc3C2=O)C(=O)N1 (stereo partly drawn) [3-(1-oxo-5-{[(3S)-1-[(2-{[(3S)-oxolan-3-yloxy]methyl}quinolin-6-yl)methyl]pyrrolidin-3-yl]oxy}-2,3-dihydro-1H-isoindol-2-yl)piperidine-2,6-dione]
293T-LentiX WEE1-ePL Degradation 4 hr (Ymin) [1]: 33
DC50 [1]: 0.00704 µM
EC50 [2]: 0.00312 µM
MKN45 Cell Prolif. 120 hr (Ymin-Obs) [2]: 7.75

O=C1CCC(N2Cc3cc(O[C@H]4CCN(Cc5ccc6c(c5)NC(=O)CO6)C4)ccc3C2=O)C(=O)N1 (stereo partly drawn) [3-(1-oxo-5-{[(3S)-1-[(3-oxo-3,4-dihydro-2H-1,4-benzoxazin-6-yl)methyl]pyrrolidin-3-yl]oxy}-2,3-dihydro-1H-isoindol-2-yl)piperidine-2,6-dione]
293T-LentiX WEE1-ePL Degradation 4 hr (Ymin) [1]: 70
DC50 [1]: 0.558 µM
EC50 [2]: > 10 µM
MKN45 Cell Prolif. 120 hr (Ymin-Obs) [2]: 88.425

O=C1CCC(N2Cc3cc(O[C@H]4CCN(Cc5cc(-c6ccccc6)ccn5)C4)ccc3C2=O)C(=O)N1 (stereo partly drawn) [3-(1-oxo-5-{[(3S)-1-[(4-phenylpyridin-2-yl)methyl]pyrrolidin-3-yl]oxy}-2,3-dihydro-1H-isoindol-2-yl)piperidine-2,6-dione]
293T-LentiX WEE1-ePL Degradation 4 hr (Ymin) [1]: 34.5
DC50 [1]: 0.0053 µM
EC50 [2]: 0.0167 µM
MKN45 Cell Prolif. 120 hr (Ymin-Obs) [2]: 8.59

O=C1CCC(N2Cc3cc(O[C@H]4CCN(Cc5ccc(-c6ccccc6)cn5)C4)ccc3C2=O)C(=O)N1 (stereo partly drawn) [3-(1-oxo-5-{[(3S)-1-[(5-phenylpyridin-2-yl)methyl]pyrrolidin-3-yl]oxy}-2,3-dihydro-1H-isoindol-2-yl)piperidine-2,6-dione]
293T-LentiX WEE1-ePL Degradation 4 hr (Ymin) [1]: 46
DC50 [1]: 0.00759 µM
EC50 [2]: 0.131 µM
MKN45 Cell Prolif. 120 hr (Ymin-Obs) [2]: 31.28

O=C1CCC(N2Cc3cc(O[C@H]4CCN(Cc5cncc(-c6ccccc6)c5)C4)ccc3C2=O)C(=O)N1 (stereo partly drawn) [3-(1-oxo-5-{[(3S)-1-[(5-phenylpyridin-3-yl)methyl]pyrrolidin-3-yl]oxy}-2,3-dihydro-1H-isoindol-2-yl)piperidine-2,6-dione]
293T-LentiX WEE1-ePL Degradation 4 hr (Ymin) [1]: 33
DC50 [1]: 0.00217 µM
EC50 [2]: 0.0084 µM
MKN45 Cell Prolif. 120 hr (Ymin-Obs) [2]: 7.52

O=C1CCC(N2Cc3cc(O[C@H]4CCN(Cc5ccc6cnncc6c5)C4)ccc3C2=O)C(=O)N1 (stereo partly drawn) [3-(1-oxo-5-{[(3S)-1-[(phthalazin-6-yl)methyl]pyrrolidin-3-yl]oxy}-2,3-dihydro-1H-isoindol-2-yl)piperidine-2,6-dione]
293T-LentiX WEE1-ePL Degradation 4 hr (Ymin) [1]: 38
DC50 [1]: 0.148 µM
EC50 [2]: 0.883 µM
MKN45 Cell Prolif. 120 hr (Ymin-Obs) [2]: 16.7

O=C1CCC(N2Cc3cc(O[C@H]4CCN(Cc5ncc6ccccc6n5)C4)ccc3C2=O)C(=O)N1 (stereo partly drawn) [3-(1-oxo-5-{[(3S)-1-[(quinazolin-2-yl)methyl]pyrrolidin-3-yl]oxy}-2,3-dihydro-1H-isoindol-2-yl)piperidine-2,6-dione]
293T-LentiX WEE1-ePL Degradation 4 hr (Ymin) [1]: 48.23
DC50 [1]: 0.0519 µM
EC50 [2]: 4.77 µM
MKN45 Cell Prolif. 120 hr (Ymin-Obs) [2]: 74.28

O=C1CCC(N2Cc3cc(O[C@H]4CCN(Cc5ccc6ncncc6c5)C4)ccc3C2=O)C(=O)N1 (stereo partly drawn) [3-(1-oxo-5-{[(3S)-1-[(quinazolin-6-yl)methyl]pyrrolidin-3-yl]oxy}-2,3-dihydro-1H-isoindol-2-yl)piperidine-2,6-dione]
293T-LentiX WEE1-ePL Degradation 4 hr (Ymin) [1]: 36.57
DC50 [1]: 0.057 µM
EC50 [2]: 0.284 µM
MKN45 Cell Prolif. 120 hr (Ymin-Obs) [2]: 20.44

O=C1CCC(N2Cc3cc(O[C@H]4CCN(Cc5ccc6ccccc6n5)C4)ccc3C2=O)C(=O)N1 (stereo partly drawn) [3-(1-oxo-5-{[(3S)-1-[(quinolin-2-yl)methyl]pyrrolidin-3-yl]oxy}-2,3-dihydro-1H-isoindol-2-yl)piperidine-2,6-dione]
293T-LentiX WEE1-ePL Degradation 4 hr (Ymin) [1]: 58
DC50 [1]: 0.0256 µM
EC50 [2]: > 10 µM
MKN45 Cell Prolif. 120 hr (Ymin-Obs) [2]: 81.45

O=C1CCC(N2Cc3cc(O[C@H]4CCN(Cc5ccnc6ccccc56)C4)ccc3C2=O)C(=O)N1 (stereo partly drawn) [3-(1-oxo-5-{[(3S)-1-[(quinolin-4-yl)methyl]pyrrolidin-3-yl]oxy}-2,3-dihydro-1H-isoindol-2-yl)piperidine-2,6-dione]
293T-LentiX WEE1-ePL Degradation 4 hr (Ymin) [1]: 33.025
DC50 [1]: 0.0234 µM
EC50 [2]: 0.0568 µM
MKN45 Cell Prolif. 120 hr (Ymin-Obs) [2]: 13.21

O=C1CCC(N2Cc3cc(O[C@H]4CCN(Cc5cccc6ncccc56)C4)ccc3C2=O)C(=O)N1 (stereo partly drawn) [3-(1-oxo-5-{[(3S)-1-[(quinolin-5-yl)methyl]pyrrolidin-3-yl]oxy}-2,3-dihydro-1H-isoindol-2-yl)piperidine-2,6-dione]
293T-LentiX WEE1-ePL Degradation 4 hr (Ymin) [1]: 32.69
DC50 [1]: 0.0146 µM
EC50 [2]: 0.104 µM
MKN45 Cell Prolif. 120 hr (Ymin-Obs) [2]: 19

O=C1CCC(N2Cc3cc(O[C@H]4CCN(Cc5ccc6ncccc6c5)C4)ccc3C2=O)C(=O)N1 (stereo partly drawn) [3-(1-oxo-5-{[(3S)-1-[(quinolin-6-yl)methyl]pyrrolidin-3-yl]oxy}-2,3-dihydro-1H-isoindol-2-yl)piperidine-2,6-dione]
293T-LentiX WEE1-ePL Degradation 4 hr (Ymin) [1]: 28.66
DC50 [1]: 0.00345 µM
EC50 [2]: 0.0304 µM
MKN45 Cell Prolif. 120 hr (Ymin-Obs) [2]: 14.87

O=C1CCC(N2Cc3cc(O[C@H]4CCN(Cc5ccc6cccnc6c5)C4)ccc3C2=O)C(=O)N1 (stereo partly drawn) [3-(1-oxo-5-{[(3S)-1-[(quinolin-7-yl)methyl]pyrrolidin-3-yl]oxy}-2,3-dihydro-1H-isoindol-2-yl)piperidine-2,6-dione]
293T-LentiX WEE1-ePL Degradation 4 hr (Ymin) [1]: 57
DC50 [1]: 0.0301 µM
EC50 [2]: > 10 µM
MKN45 Cell Prolif. 120 hr (Ymin-Obs) [2]: 76.22

O=C1CCC(N2Cc3cc(O[C@H]4CCN(Cc5cnc6ccccc6n5)C4)ccc3C2=O)C(=O)N1 (stereo partly drawn) [3-(1-oxo-5-{[(3S)-1-[(quinoxalin-2-yl)methyl]pyrrolidin-3-yl]oxy}-2,3-dihydro-1H-isoindol-2-yl)piperidine-2,6-dione]
293T-LentiX WEE1-ePL Degradation 4 hr (Ymin) [1]: 43.82
DC50 [1]: 0.0469 µM
EC50 [2]: > 10 µM
MKN45 Cell Prolif. 120 hr (Ymin-Obs) [2]: 64.16

O=C1CCC(N2Cc3cc(O[C@H]4CCN(Cc5ccc6nccnc6c5)C4)ccc3C2=O)C(=O)N1 (stereo partly drawn) [3-(1-oxo-5-{[(3S)-1-[(quinoxalin-6-yl)methyl]pyrrolidin-3-yl]oxy}-2,3-dihydro-1H-isoindol-2-yl)piperidine-2,6-dione]
293T-LentiX WEE1-ePL Degradation 4 hr (Ymin) [1]: 43
DC50 [1]: 0.0142 µM
EC50 [2]: 0.879 µM
MKN45 Cell Prolif. 120 hr (Ymin-Obs) [2]: 70.03

O=C1CCC(N2Cc3cc(O[C@H]4CCN(Cc5cnn(-c6cccnc6)c5)C4)ccc3C2=O)C(=O)N1 (stereo partly drawn) [3-(1-oxo-5-{[(3S)-1-{[1-(pyridin-3-yl)-1H-pyrazol-4-yl]methyl}pyrrolidin-3-yl]oxy}-2,3-dihydro-1H-isoindol-2-yl)piperidine-2,6-dione]
293T-LentiX WEE1-ePL Degradation 4 hr (Ymin) [1]: 31.735
EC50 [2]: 0.269 µM
MKN45 Cell Prolif. 120 hr (Ymin-Obs) [2]: 11.53

O=C1CCC(N2Cc3cc(O[C@H]4CCN(Cc5ccc6nc(CC(F)(F)F)ccc6c5)C4)ccc3C2=O)C(=O)N1 (stereo partly drawn) [3-(1-oxo-5-{[(3S)-1-{[2-(2,2,2-trifluoroethyl)quinolin-6-yl]methyl}pyrrolidin-3-yl]oxy}-2,3-dihydro-1H-isoindol-2-yl)piperidine-2,6-dione]
293T-LentiX WEE1-ePL Degradation 4 hr (Ymin) [1]: 33.67
DC50 [1]: 0.0054 µM
EC50 [2]: 0.0208 µM
MKN45 Cell Prolif. 120 hr (Ymin-Obs) [2]: 13.32

O=C1CCC(N2Cc3cc(O[C@H]4CCN(Cc5ccc6nc(-n7ccccc7=O)ccc6c5)C4)ccc3C2=O)C(=O)N1 (stereo partly drawn) [3-(1-oxo-5-{[(3S)-1-{[2-(2-oxo-1,2-dihydropyridin-1-yl)quinolin-6-yl]methyl}pyrrolidin-3-yl]oxy}-2,3-dihydro-1H-isoindol-2-yl)piperidine-2,6-dione]
293T-LentiX WEE1-ePL Degradation 4 hr (Ymin) [1]: 35
DC50 [1]: 0.00227 µM
EC50 [2]: 0.00193 µM
MKN45 Cell Prolif. 120 hr (Ymin-Obs) [2]: 8.805
